Measured values reported in patent publication US20210038502A1, “S1PR2 ANTAGONISTS FOR TREATING DISEASES INVOLVING ABNORMAL IMMUNE RESPONSES” (INSERM (Institut National de la Santé et de la Recherche …, priority 2017, published 2021).

How the values were obtained:
[1] = tested on: tonsil naive T cells; experiment: Transwell chemotaxis of tonsil naive T cells towards S1P; type: cell-based, human; conditions: for Effect of pharmacological inhibitor on tonsil naive T cell migration to S1P: tonsil naive T cells, 2 h pre-incubation with inhibitor
[2] = tested on: peripheral T cells and NK cells; conditions: cited from earlier work
[3] = tested on: tonsil TCM and TEM cells; experiment: Transwell migration of tonsil memory T cells (TCM, TEM) in presence of S1P; type: cell-based, human; conditions: for Impact on memory T cell migration in the presence of S1P: tonsil memory T cells
[4] = tested on: tonsil CD4+ TRM cells (CD69 positive); experiment: Transwell migration of tonsil resident memory T cells (TRM) in presence of S1P; conditions: irrespective of CD103 expression
Protocol: All material was used after obtaining informed consent and the research was conducted in accordance with the Helsinki Declaration. Human peripheral blood was obtained from healthy donors. Cells were ficollized and then washed several times in complete medium before resuspension in chemotaxis medium. Pediatric tonsils were obtained from patients undergoing tonsillectomy and were cut into pieces using a scalpel and then passed through a 70 μM cell strained to produce a cell suspension. Cells were then ficollized and washed before migration studies.
Tonsil lymphocytes or PBMC were suspended in RPMI1640 supplemented with 4 mg/ml fatty acid-free bovine albumin (Sigma, St-Louis, USA). […] Cell migration was analyzed in Transwell chambers (Costar, Cambridge, USA) with 5 μm pore-width polycarbonate filters. […] Transmigrated cells were stained for CD3 (UCHT1), CD4 (RPA-T4), CD8 (RPA-T8), CD45RO (UCHL1), CCR7 (G043H7), CD69 (FN50), CD103 (Ber-act8), CD38 (HIT32) and HLA-DR (LN3) and analyzed/counted by flow cytometry (MACSquant, Miltenyi biotec, Bergisch Gladbach, Germany). […] The percentage of input was calculated as the ratio between the number of cells migrating in a given condition and the number of cells used for the chemotaxis assay.

[5] = tested on: act-CD4+ and act-CD8+ T cells; experiment: Transwell migration of tonsil recently activated T cells (CD38+HLA-DR+) in presence of S1P; type: cell-based, human
From the text: Upon antigen-mediated activation, T cells are retained within secondary lymphoid organs, presumably to sustain their activation and differentiation through serial interactions with antigen presenting cells. Mechanistically, it was previously reported that mouse T cells lose their reactivity during this phase by down regulating S1PR1 expression (Matloubian et al., 2004). We addressed this point in human, exploiting the fact that tonsils contain act-T cells in a variable proportion, classically defined as CD38^+HLA-DR^+.

[6] = tested on: tonsil T cell subsets; experiment: Transwell migration of tonsil T cell subsets toward CXCL12 +/- S1P
Protocol: Results are shown as migration index.
All material was used after obtaining informed consent and the research was conducted in accordance with the Helsinki Declaration. […] Pediatric tonsils were obtained from patients undergoing tonsillectomy and were cut into pieces using a scalpel and then passed through a 70 μM cell strained to produce a cell suspension. Cells were then ficollized and washed before migration studies.
Tonsil lymphocytes or PBMC were suspended in RPMI1640 supplemented with 4 mg/ml fatty acid-free bovine albumin (Sigma, St-Louis, USA). […] Cell migration was analyzed in Transwell chambers (Costar, Cambridge, USA) with 5 μm pore-width polycarbonate filters. […] PBMC or tonsil cells were added to the top chambers of the transwell systems in the presence or absence of the pharmacological inhibitors and incubated at 37° C. for 2 hours. The chemoattractants were then added in the lower chamber and the cells were allowed to migrate for 2 hours. Transmigrated cells were stained for CD3 (UCHT1), CD4 (RPA-T4), CD8 (RPA-T8), CD45RO (UCHL1), CCR7 (G043H7), CD69 (FN50), CD103 (Ber-act8), CD38 (HIT32) and HLA-DR (LN3) and analyzed/counted by flow cytometry (MACSquant, Miltenyi biotec, Bergisch Gladbach, Germany). All antibodies were purchased from BD-Biosciences (San Jose, Calif.), eBioscience (San Diego, Calif.), Beckman-Coulter (Miami, Fla.) or Biolegend (San Diego, Calif.). […] The percentage of input was calculated as the ratio between the number of cells migrating in a given condition and the number of cells used for the chemotaxis assay.

[7] = tested on: blood T cells; experiment: Transwell chemotaxis of blood T cells (PBMC) towards S1P; type: cell-based, human
From the text: T cell subsets were identified by flow cytometry.

[8] = molecular target: S1PR1 (Homo sapiens, UniProt P21453); conditions: read-out: Kd of S1P to S1PR1; cited from earlier work
Sequence of S1PR1 (P21453 whole entry, species assumed): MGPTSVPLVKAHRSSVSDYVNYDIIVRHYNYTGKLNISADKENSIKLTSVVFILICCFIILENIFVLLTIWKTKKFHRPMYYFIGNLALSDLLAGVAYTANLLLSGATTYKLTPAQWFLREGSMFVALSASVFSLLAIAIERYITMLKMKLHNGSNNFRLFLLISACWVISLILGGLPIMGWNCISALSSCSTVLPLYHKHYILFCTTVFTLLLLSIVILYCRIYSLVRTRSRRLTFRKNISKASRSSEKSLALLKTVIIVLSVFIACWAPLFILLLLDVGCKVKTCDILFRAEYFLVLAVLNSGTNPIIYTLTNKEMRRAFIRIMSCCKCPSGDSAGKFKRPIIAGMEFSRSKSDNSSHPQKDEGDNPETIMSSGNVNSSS

Cc1cc(CN)cc(C)c1NC(=O)c1ccc(-c2cc(Cl)ccc2Cl)o1 [CYM50358]
Effect of pharmacological inhibitor on tonsil naive T cell migration to S1P ([1]; S1P gradient): insensitive

CCCCCCCCc1ccc(CCC(N)(CO)CO)cc1 [FTY720]
Effect of pharmacological inhibitor on tonsil naive T cell migration to S1P ([1]; S1P gradient): strongly inhibited | Effect on peripheral TEM cells and NK cells in treated patients [2]: does not affect | Effect on peripheral naive and central memory T cells in treated patients [2]: quick decrease | Impact on memory T cell migration in the presence of S1P [3]: negative impact

Cc1nn(C)c2nc(NNC(=O)Nc3cc(Cl)nc(Cl)c3)cc(C(C)C)c12 [JTE-013]
Effect of pharmacological inhibitor on tonsil naive T cell migration to S1P ([1]; S1P gradient): increased | Effect on S1P inhibition of spontaneous migration of CD4+ TRM cells ([4]; CD69 positive): abrogated | Effect on the inhibitory effect of S1P on TCM and TEM migration ([3]; tonsil TCM and TEM cells): abrogated | Effect on S1P inhibition of spontaneous migration of act-CD4+ and act-CD8+ T cells ([5]; CD38+HLA-DR+ tonsil T cells): curbed | Effect on S1P-mediated decrease of CXCL12-induced migration of TEM and TCM cells ([6]; CXCL12 12 ng/ml, S1P 37 nM, JTE-013 1000 nM for 2 h): abrogated

CCCCCCCCCCCCC/C=C/[C@@H](O)[C@@H](N)COP(=O)(O)O [S1P, Sphingosine-1 phosphate]
Effect of S1P gradients on tonsil naive T cell chemotaxis ([1]; compared to control without S1P): strongly increased | S1P concentration giving maximum migration of tonsil naive T cells ([1]; transwell, S1P gradient): 30 to 60 nM | Response of blood memory T cells to S1P ([7]; PBMC): did not respond | Response of blood naive T cells to S1P ([7]; PBMC from healthy donors): did not respond | Kd [8]: 8 nM | Effect of S1P on spontaneous migration of CD4+ TRM cells [4]: inhibited | Effect of S1P on spontaneous migration of tonsil TCM and TEM cells ([3]; S1P in lower chamber, especially memory CD4 T cells): inhibited | Effect of S1P on spontaneous migration of act-CD4+ and act-CD8+ T cells [5]: strongly inhibited | Effect of S1P on CXCL12-induced migration of TEM cells ([6]; S1P 37 nM in lower chamber): decreased | Effect of S1P on CXCL12-induced migration of naive CD4 and CD8 T cells ([6]; S1P 37 nM in lower chamber): slightly increased

FC(F)(F)c1cccc(-c2noc(-c3cc(-c4ccccc4)c(C(F)(F)F)s3)n2)c1 [SEW2871]
Effect of pharmacological inhibitor on tonsil naive T cell migration to S1P ([1]; S1P gradient): strongly inhibited | Impact on memory T cell migration in the presence of S1P [3]: negative impact
